In series [1] the target is insulin-like growth factor-1 receptor (IGF-1R). Also noted: method as in PMID 20178321. The settings on record: read-out: IC50, IGF-1R inhibition; cited from earlier work.
The nature of series [2]: MTS cell viability assay, HepG2. In kind it is cell-based. Particulars: human, HepG2 cells; for viability: concentrations of ≥1250 µg/mL, time not stated. As to the method: (§1) The MTS assay was employed in the current study to evaluate the in vitro effects of thiazolidinone derivatives (TZDs-1, 5, 6, and 7) on the cellular viability of the HFF-1, HepG2, and A549 cell lines following incubation for 24 and 48 h. Using the MTS assay allows for the quantitative measurement of how TZDs affect cell viability after a certain period of treatment. The 24- and 48-hour incubation periods are useful for observing either immediate and delayed cytotoxicity or effects on cell growth, providing more comprehensive data on the potential therapeutic or toxic properties of thiazolidinone derivatives.
(§2) All solvents used in the preparation of thiazolidinone derivatives were obtained in pure form from Sigma-Aldrich (St. Louis, MO, USA) and Thermo Fisher Scientific (Waltham, MA, USA). All other chemicals used herein were of analytical grade and were used without further purification. To separate and confirm the purity of thiazolidinone derivatives, column chromatography on silica gel (0.063–0.2 mm) and thin layer chromatography (TLC) with aluminum silica gel F254 were used. Human foreskin fibroblasts (HFF-1) (ATCC: SCRC-1041), hepatoblastoma cell line (HepG2) (ATCC: HB-8065), and human lung cancer cell line (A549) (ATCC: CCL-185) were used in this study to evaluate the cytotoxicity of the tested compounds. Distilled water for experiment preparation was generated using a Milli-Q® IQ 7005 Purification System (Millipore SAS, Molsheim, France).
(§3) HFF-1, HepG2, and A549 were cultured in DMEM (Sigma-Aldrich, St. Louis, MO, USA) medium complemented with 10% fetal bovine serum (FBS) (Sigma, Suffolk, UK), streptomycin ([…]), and penicillin (100 units/mL) (Sigma, Suffolk, UK) in a cell culture incubator (5% CO2 at 37 °C).
(§4) Thiazolidinone derivatives (TZDs-1, 5, 6, and 7) were prepared via dissolution in 10% DMSO and 8 serial dilutions and assessed starting from 5000 to 39 µg/mL. A CellTiter 96® AQueous One Solution Cell Proliferation Assay (MTS kit, Promega, Madison, WI, USA) was used to evaluate the cell viability of TZDs on the cells. Briefly, all cells were seeded into 96-well plates with a seeding density of 1.5 × 10^4 cells per well. After 24 h, cells adhered, and then, TZD derivatives were added, and plates were incubated in a cell culture incubator with 5% CO2 at 37 °C for 24 and 48 h. Completed DMEM was used as the positive control, and 0.1% Triton X-100 was used as the negative control. After incubation time, cells were washed with sterile phosphate-buffered saline, pH 7.4 (PBS), and then, a mixture of complete DMEM medium and MTS reagent was added to each well (100 µL of DMEM medium + 20 µL of MTS reagent). Finally, the plates were incubated for 3 h in a cell culture incubator. The absorbance at 492 nm was recorded using a Cytation ™ 3 Cell Imaging Multi-Mode Reader (BIOTEK Instruments Inc., Winooski, VT, USA). The percentage of cellular viability was calculated using the following equation:Cell Viability (%) = (S − T)/(H − T) × 100 where S is the absorbance of the cells treated with the applied compounds, T is the absorbance of the positive control, and H is the absorbance of the negative control. The results are presented as the mean ± SD of at least three independent measurements.

The nature of series [3]: MTS cell viability assay, HFF-1. In kind it is cell-based, human. Particulars: human, HFF-1 cells (foreskin fibroblasts). The procedure:
as §1, §2, §3, §4

Series [4] in a line: MTS cell viability assay, A549. Format: cell-based. Particulars: human, A549 cells. As to the method: as §1, §2, §3, §4
(In general: Tetrazolium dyes change colour on reduction, which living cells bring about.)

The test system of series [5] is normal (HFF-1) and cancerous cells (HepG2 and A549). The series is described as follows: Summary of selectivity toward cancer cells (MTS viability, normal vs cancerous cells). In kind it is cell-based, human. The procedure:
as §1, §3, §4

Details of series [6]: method as in doi:10.1016/j.molstruc.2024.139348. Particulars: DPPH; unit inferred; cited from earlier work. (The DPPH test is a chemical assay of radical scavenging.)
A short description of series [7]: DPPH radical-scavenging assay (antioxidant activity). In kind it is biochemical. The procedure:
In this study, the antioxidant activity of the newly synthesized thiazolidinone derivative 5 was evaluated, and its IC50 value was compared with those of the parent compound, thiazolidinone 1; previously reported derivatives 6 and 7; and the reference antioxidant, ascorbic acid. To ensure a valid comparison, all compounds were assessed under identical conditions using the DPPH (2,2-diphenyl-1-picrylhydrazyl) radical-scavenging assay.
The antioxidant activity of thiazolidinone derivative 5 was evaluated under conditions similar to those reported in our previous work for thiazolidinone derivatives (1, 6, and 7) using the DPPH assay (2,2-diphenyl-1-picrylhydrazyl). The concentration needed to get rid of 50% of free radicals is called IC50 (half-maximal inhibitory concentration) (μg/mL). The value of the IC50 is determined by plotting antioxidant activity against the concentration employing the equation below:%Antioxidant activity = (Acontrol − Asample/Acontrol) × 100 where Acontrol is the absorbance of the DPPH solution without the sample, and Asample is the absorbance with the tested compound. These percentage inhibition values are then plotted against the logarithm of the compound concentrations to generate a dose–response curve. […]

Another series relates to HFF-1 cells. The series is described as follows: MTS cell viability assay, HFF-1. Particulars: 48 h, 1250 µg/mL. Format: cell-based, human. The procedure:
as §1, §2, §3, §4

The IC50 is the concentration that gives 50% inhibition. The viability is a read-out of living cells in per cent, often relative to untreated cells.

The structures appear in SMILES notation.

With `O=C1NC(=O)C(=Cc2ccco2)S1` [5-(furan-2-ylmethylene)thiazolidine-2,4-dione], in series [1], the IC50 is 61 nM.

As to `O=C1NC(=O)C(=Cc2ccccc2)S1` [5-benzylidenethiazolidine-2,4-dione], the IC50 in series [1] was 57 nM.

Turning to `COc1cc(C=NNC2=NC(=O)CS2)cc(OC)c1OC` [TZD-1, 2-(2-(3,4,5-trimethoxybenzylidene) hydrazineyl)thiazol-4(5H)-one], the viability at 24 h, 1250 µg/mL in series [2] (24 h) amounted to 53.2%; in series [3] (24 h), 6.45%; in series [4] (24 h), 75.6%. Also, the viability at 48 h, 1250 µg/mL was determined as 21.9% in series [2], 15.3% in series [3] and 70.6% in series [4]. For the same molecule, the viability in series [2] is less than 25%. The “Selectivity Toward Cancer Cells” value in series [5] (24 h, 1250 µg/mL) is reported as “Low (high toxicity to normal cells)”; in series [5] (48 h, 1250 µg/mL), “Low”. In series [6], the IC50 of antioxidant activity (Figure 3) is 263 µg/mL.

For the molecule `COc1ccc(CN2C(=O)CSC2=NN=Cc2cc(OC)c(OC)c(OC)c2)cc1` [TZD-5, 3-(4-methoxybenzyl)-2-((3,4,5-trimethoxybenzylidene)hydrazineylidene) thiazolidin-4-one], the viability at 24 h, 2500 µg/mL turned out to be 63% in series [2] (24 h, 2500 µg/mL); 97% in series [3] (24 h, 2500 µg/mL); 95.8% in series [4] (24 h, 2500 µg/mL). Besides, the viability at 48 h, 2500 µg/mL in series [2] (2500 µg/mL) came out at 57%; in series [3] (2500 µg/mL) it was 48%; in series [4] (2500 µg/mL), 55%. Further, the “Selectivity Toward Cancer Cells” value is recorded as “Moderate (better selectivity)” in series [5] (24 h, 2500 µg/mL) and “Moderate” in series [5] (48 h, 2500 µg/mL). Moreover, the “IC50 of antioxidant activity (DPPH)” value in series [7] worked out at 24.4 µg/mL.

Consider `COc1cc(/C=N/N=C2\SCC(=O)N2Cc2ccccc2)cc(OC)c1OC` [TZD-6], for which the viability at 24 h, 156 µg/mL in series [2] (24 h, 156 µg/mL) worked out at 76%; in series [4] (24 h, 156 µg/mL) it was 78%. The viability at 24 h, 1250 µg/mL was determined as 25% in series [2] (24 h), 2% in series [3] (24 h) and 13% in series [4] (24 h). Also, the viability at 24 h, 5000 µg/mL in series [2] (24 h, 5000 µg/mL) was 35%; in series [4] (24 h, 5000 µg/mL), 10%. Further, the viability at 48 h, 1250 µg/mL in series [2] is 12%; in series [3], 1 to 2%; in series [4], 9%. The viability at 48 h, 2500 µg/mL in series [2] (2500 µg/mL) is 7%; in series [3] (2500 µg/mL), 1 to 2%; in series [4] (2500 µg/mL), 13%. The viability is less than 25% in series [2] and less than 25% in series [4] (concentrations of ≥1250 µg/mL, time not stated). Besides, the “HFF-1 Viability (%)” value in the series on HFF-1 cells is given as 1–2%. The viability at 24 h, 312 µg/mL in series [3] (24 h, 312 µg/mL) stood at 70%. Further, the “Selectivity Toward Cancer Cells” value in series [5] (24 h, 1250 µg/mL) was “Low (high toxicity to normal cells)”; in series [5] (48 h, 1250 µg/mL), “Low”. Besides, the IC50 of antioxidant activity (Figure 3) in series [6] was 111 µg/mL.

As to `COc1cc(/C=N/N=C2\SCC(=O)N2Cc2ccc([N+](=O)[O-])cc2)cc(OC)c1OC` [TZD-7], the viability at 24 h, 1250 µg/mL in series [2] (24 h) came out at 96.4%; in series [3] (24 h), 110%; in series [4] (24 h), 70%. In addition, the values for the viability at 48 h, 1250 µg/mL in series [2], in series [3] and in series [4] were approximately 23%, more than 94% and 82.3%, respectively. In addition, the viability at 24 h, 39 µg/mL in series [3] (24 h, 39 µg/mL) was found to be 135%. In addition, the “Selectivity Toward Cancer Cells” value is given as “Moderate (better selectivity)” in series [5] (24 h, 1250 µg/mL) and “High” in series [5] (48 h, 1250 µg/mL). Moreover, in series [6], the IC50 of antioxidant activity (Figure 3) is 200 µg/mL.

For `O=C1O[C@H]([C@@H](O)CO)C(O)=C1O` [ascorbic acid, reference compound], the “IC50 of antioxidant activity (DPPH)” value in series [7] came to 11.76 µg/mL.

These data come from paper PMC12249957, “Molecular Hybrids of Thiazolidinone: Bridging Redox Modulation and Cancer Therapy” (International Journal of Molecular Sciences, 2025).
